Experimental data reported in ChEMBL document CHEMBL4477208, “Discovery and Rational Design of Pteridin-7(8H)-one-Based Inhibitors Targeting FMS-like Tyrosine Kinase 3 (FLT3) and Its Mutants” (J Med Chem, 2016).

Experiments:
MV4-11 [1] = experiment: animal or person; conditions: Mus musculus, MV4-11, po, read-out: TGI
Description: Antitumor activity against human MV4-11 cells xenografted in nude BALB/c mouse assessed as tumor growth inhibition at 10 mg/kg, po qd for 14 days measured every 2 days

NCI-H1975 = experiment: Antiproliferative activity against human NCI-H1975 cells after 72 hrs by SRB assay; assay type: functional, cell-based; conditions: NCI-H1975, 72 h
MOLT-4 = experiment: Antiproliferative activity against human MOLT4 cells after 72 hrs by MTT assay; assay type: functional, cell-based; conditions: MOLT-4, 72 h
[2] = Cmax in overnight fasted Sprague-Dawley rat plasma at 1 mg/kg, iv up to 24 hrs by LC-MS/MS analysis; assay type: ADME, organism-based; parameters: dose 1 mg/kg, route intravenous
MV4-11 [3] = experiment: Induction of apoptosis in human MV4-11 cells assessed as apoptotic cells after 48 hrs by annexin V/propidium iodide staining based FACS analysis; assay type: functional, cell-based
[4] = Half life in overnight fasted Sprague-Dawley rat plasma at 10 mg/kg administered via oral gavage up to 24 hrs by LC-MS/MS analysis; assay type: ADME, organism-based
[5] = system: Receptor-type tyrosine-protein kinase FLT3 (Homo sapiens), P36888 [D835V]; experiment: Inhibition of human FLT3 D835V mutant expressed in mammalian system assessed as remaining enzyme activity at 1 uM relative to untreated control
MV4-11 [6] = experiment: Cell cycle arrest in human MV4-11 cells assessed as accumulation at G2 phase at 10 nM after 48 hrs by PI/RNase staining based FACS analysis (reference value: 13.95%); assay type: functional
RS4-11 = experiment: Antiproliferative activity against human RS4:11 cells after 72 hrs by MTT assay; assay type: functional, cell-based; conditions: RS4-11, 72 h
NCI-H1299 = experiment: Antiproliferative activity against human H1299 cells after 72 hrs by SRB assay; assay type: functional, cell-based; conditions: NCI-H1299, 72 h
MV4-11 [7] = experiment: Antitumor activity against human MV4-11 cells xenografted in nude BALB/c mouse assessed as tumor growth inhibition at 25 mg/kg, ip qd for 14 days measured every 2 days; assay type: functional; conditions: MV4-11, ip, read-out: TGI
[8] = target: Receptor-type tyrosine-protein kinase FLT3 (Homo sapiens, UniProt P36888, D835V); experiment: Binding affinity to human partial length FLT3 D835V mutant (592 to 969 residues) expressed in mammalian expression system after 1 hr
[9] = system: Receptor-type tyrosine-protein kinase FLT3 (Homo sapiens), P36888 [UNDEFINED MUTATION]; experiment: Inhibition of human FLT3 ITD/D835V mutant expressed in mammalian system assessed as remaining enzyme activity at 1 uM relative to untreated control
[10] = AUC (0 to infinity) in overnight fasted Sprague-Dawley rat plasma at 1 mg/kg, iv up to 24 hrs by LC-MS/MS analysis; assay type: ADME, organism-based; parameters: dose 1 mg/kg, route intravenous, time infinity
K562 = experiment: cells; conditions: Homo sapiens, K562, 72 h
Description: Antiproliferative activity against FLT3-deficient human K562 cells after 72 hrs by MTT assay

SH-SY5Y = experiment: Antiproliferative activity against human SH-SY5Y cells after 72 hrs by SRB assay; assay type: functional, cell-based
MOLM-13 = experiment: Antiproliferative activity against human MOLM13 cells harboring FLT3-ITD mutant after 72 hrs by MTT assay; assay type: functional, cell-based; conditions: MOLM-13, 72 h
[11] = system: Receptor-type tyrosine-protein kinase FLT3 (Homo sapiens), P36888 [UNDEFINED MUTATION]; experiment: Inhibition of human FLT3 ITD mutant expressed in bacterial system assessed as remaining enzyme activity at 1 uM relative to untreated control
MV4-11 [12] = experiment: Induction of apoptosis in human MV4-11 cells assessed as necrotic cells at 10 nM after 48 hrs by annexin V/propidium iodide staining based FACS analysis (reference value: 0.05%); assay type: functional
[13] = Half life in overnight fasted Sprague-Dawley rat plasma at 1 mg/kg, iv up to 24 hrs by LC-MS/MS analysis; assay type: ADME, organism-based
[14] = target: T1, Receptor-type tyrosine-protein kinase FLT3 (Homo sapiens, UniProt P36888)
T1 sequence (P36888 whole entry): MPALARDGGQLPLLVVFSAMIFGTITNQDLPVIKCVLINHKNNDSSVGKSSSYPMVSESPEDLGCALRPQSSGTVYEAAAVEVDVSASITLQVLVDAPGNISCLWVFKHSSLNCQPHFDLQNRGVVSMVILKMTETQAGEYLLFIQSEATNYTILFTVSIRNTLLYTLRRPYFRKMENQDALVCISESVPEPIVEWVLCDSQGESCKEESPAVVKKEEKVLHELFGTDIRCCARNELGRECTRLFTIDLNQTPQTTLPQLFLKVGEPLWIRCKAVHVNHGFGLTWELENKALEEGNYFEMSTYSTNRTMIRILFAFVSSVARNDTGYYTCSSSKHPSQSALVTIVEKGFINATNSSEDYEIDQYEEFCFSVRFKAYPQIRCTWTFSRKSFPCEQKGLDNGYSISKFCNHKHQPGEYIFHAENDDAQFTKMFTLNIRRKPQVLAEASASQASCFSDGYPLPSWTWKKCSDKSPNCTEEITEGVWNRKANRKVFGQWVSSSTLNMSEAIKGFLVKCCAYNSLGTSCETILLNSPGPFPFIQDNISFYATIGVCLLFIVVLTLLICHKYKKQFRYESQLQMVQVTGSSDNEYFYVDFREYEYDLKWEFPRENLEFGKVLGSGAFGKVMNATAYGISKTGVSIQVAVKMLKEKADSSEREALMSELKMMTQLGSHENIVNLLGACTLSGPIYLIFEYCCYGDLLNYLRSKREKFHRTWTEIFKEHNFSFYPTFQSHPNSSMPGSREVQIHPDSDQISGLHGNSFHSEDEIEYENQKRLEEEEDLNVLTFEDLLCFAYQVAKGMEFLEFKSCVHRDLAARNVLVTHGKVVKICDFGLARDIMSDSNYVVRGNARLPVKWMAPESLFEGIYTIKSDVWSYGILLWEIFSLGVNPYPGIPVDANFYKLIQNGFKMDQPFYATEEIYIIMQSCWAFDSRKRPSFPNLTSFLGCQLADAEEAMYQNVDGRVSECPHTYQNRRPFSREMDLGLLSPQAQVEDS
Description: Inhibition of human N-terminal GST-tagged FLT3 (564 to 993 residues) expressed in baculovirus expression system using peptide FAM-P2 as substrate incubated for 10 mins followed by substrate addition by mobility shift assay

[15] = Tmax in overnight fasted Sprague-Dawley rat plasma at 10 mg/kg administered via oral gavage up to 24 hrs by LC-MS/MS analysis; assay type: ADME, organism-based
WI-38 = experiment: cells; conditions: Homo sapiens, WI-38, 72 h
Description: Antiproliferative activity against human WI38 cells after 72 hrs by SRB assay

MV4-11 [16] = experiment: Cell cycle arrest in human MV4-11 cells assessed as accumulation at S phase at 100 nM after 48 hrs by PI/RNase staining based FACS analysis (reference value: 16.50%); assay type: functional
MV4-11 [17] = experiment: Cell cycle arrest in human MV4-11 cells assessed as cell debris level at 1000 nM after 48 hrs by PI/RNase staining based FACS analysis; assay type: functional
MV4-11 [18] = experiment: Induction of apoptosis in human MV4-11 cells assessed as viable cells at 1 nM after 48 hrs by annexin V/propidium iodide staining based FACS analysis (reference value: 90.60%); assay type: functional; conditions: MV4-11, 48 h, read-out: Activity
MV4-11 [19] = experiment: Induction of apoptosis in human MV4-11 cells assessed as early apoptotic cells at 10 nM after 48 hrs by annexin V/propidium iodide staining based FACS analysis (reference value: 6.31%); assay type: functional

Question: For `Cc1cc(Nc2ncc3ncc(=O)n(-c4ccc(N)cc4)c3n2)ccc1N1CCN(C)CC1`, which inhibition in vivo at 10 mg/kg (MV4-11 [1]) is on record?
Answer: Its inhibition in vivo at 10 mg/kg is 28%.

Question: And the IC50 (NCI-H1975)?
Answer: The IC50 was 4.46 µM.

Question: And the IC50 (MOLT-4)?
Answer: The IC50 was 2.12 µM.

Question: What about the Cmax [2] of the same molecule?
Answer: The Cmax was 55.2 ng/mL.

Question: What about the Activity (MV4-11 [3]) of the same molecule?
Answer: The Activity was “Dose-dependent effect”.

Question: And the half-life [4]?
Answer: Its half-life is 4.49 h.

Question: And the Activity [5]?
Answer: The Activity was under 1%.

Question: And the Activity (MV4-11 [6])?
Answer: The Activity was 11.4%.

Question: What about the IC50 (RS4-11) of the same molecule?
Answer: The IC50 was 0.925 µM.

Question: And the IC50 (NCI-H1299)?
Answer: The IC50 was 4.88 µM.

Question: And the inhibition in vivo at 25 mg/kg (MV4-11 [7])?
Answer: Its inhibition in vivo at 25 mg/kg is 129%.

Question: And the Kd [8]?
Answer: Its Kd is 0.00025 µM.

Question: What about the Activity [9] of the same molecule?
Answer: The Activity was under 1%.

Question: And the AUC(0-inf) [10]?
Answer: The AUC(0-inf) was 119 ng·h/mL.

Question: And the IC50 (K562)?
Answer: Its IC50 is over 10 µM.

Question: And the IC50 (SH-SY5Y)?
Answer: The IC50 was 5.57 µM.

Question: And the IC50 (MOLM-13)?
Answer: The IC50 was 0.0329 µM.

Question: And the Activity [11]?
Answer: The Activity was under 1%.

Question: What about the Activity (MV4-11 [12]) of the same molecule?
Answer: The Activity was 0.01%.

Question: What about the half-life [13] of the same molecule?
Answer: The half-life was 3.11 h.

Question: And the IC50 [14]?
Answer: Its IC50 is 0.00156 µM.

Question: What about the Tmax [15] of the same molecule?
Answer: Its Tmax is 2.17 h.

Question: What about the IC50 (WI-38) of the same molecule?
Answer: The IC50 was 4.12 µM.

Question: What about the Activity (MV4-11 [16]) of the same molecule?
Answer: The Activity was 2.06%.

Question: And the Activity (MV4-11 [17])?
Answer: Its Activity is 16.38%.

Question: What about the viability at 0.001 µM (MV4-11 [18]) of the same molecule?
Answer: Its viability at 0.001 µM is 90.3%.

Question: And the Activity (MV4-11 [19])?
Answer: The Activity was 9.71%.
